Assay results from PubChem BioAssay (NCI).
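All cell lines were grown in 96-well plates and treated with compound for 48 hours. Here, GI50 denotes the concentration required for 50% inhibition of growth. The concentration for full growth arrest is given as TGI.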

Key:
Experiment in all cases: NCI anticancer screen, dose series, 48 h
786-0 renal = test system: 786-0 renal
A498 renal = test system: A498 renal
A549 NSCLC = test system: A549 NSCLC
ACHN renal = test system: ACHN renal
CAKI-1 renal = test system: CAKI-1 renal
CCRF-CEM leukemia = test system: CCRF-CEM leukemia
COLO 205 colon = test system: COLO 205 colon
DLD-1 colon = test system: DLD-1 colon
DMS 114 small cell lung = test system: DMS 114 small cell lung
DMS 273 small cell lung = test system: DMS 273 small cell lung
HCT-116 colon = test system: HCT-116 colon
HL-60(TB) leukemia = test system: HL-60(TB) leukemia
HOP-18 NSCLC = test system: HOP-18 NSCLC
HOP-92 NSCLC = test system: HOP-92 NSCLC
HT29 colon = test system: HT29 colon
IGROV1 ovarian = test system: IGROV1 ovarian
K-562 leukemia = test system: K-562 leukemia
KM12 colon = test system: KM12 colon
KM20L2 colon = test system: KM20L2 colon
LOX IMVI melanoma = test system: LOX IMVI melanoma
LXFL 529 NSCLC = test system: LXFL 529 NSCLC
M14 melanoma = test system: M14 melanoma
MALME-3M melanoma = test system: MALME-3M melanoma
MOLT-4 leukemia = test system: MOLT-4 leukemia
NCI-H226 lung = test system: NCI-H226 lung
NCI-H23 lung = test system: NCI-H23 lung
NCI-H460 lung = test system: NCI-H460 lung
NCI-H522 lung = test system: NCI-H522 lung
OVCAR-3 ovarian = test system: OVCAR-3 ovarian
OVCAR-4 ovarian = test system: OVCAR-4 ovarian
OVCAR-5 ovarian = test system: OVCAR-5 ovarian
OVCAR-8 ovarian = test system: OVCAR-8 ovarian
RPMI-8226 leukemia = test system: RPMI-8226 leukemia
RXF 393 renal = test system: RXF 393 renal
SF-268 CNS = test system: SF-268 CNS
SF-295 CNS = test system: SF-295 CNS
SF-539 CNS = test system: SF-539 CNS
SK-MEL-2 melanoma = test system: SK-MEL-2 melanoma
SK-MEL-28 melanoma = test system: SK-MEL-28 melanoma
SK-MEL-5 melanoma = test system: SK-MEL-5 melanoma
SK-OV-3 ovarian = test system: SK-OV-3 ovarian
SN12C renal = test system: SN12C renal
SNB-19 CNS = test system: SNB-19 CNS
SNB-75 CNS = test system: SNB-75 CNS
SR leukemia = test system: SR leukemia
SW-620 colon = test system: SW-620 colon
TK-10 renal = test system: TK-10 renal
U251 CNS = test system: U251 CNS
UACC-257 melanoma = test system: UACC-257 melanoma
UACC-62 melanoma = test system: UACC-62 melanoma
UO-31 renal = test system: UO-31 renal
XF 498 CNS = test system: XF 498 CNS

What does the source list for CC(=O)[CH-]C(C)=O.CC(=O)[CH-]C(C)=O.CC(=O)[CH-]C(C)=O.[In+3]?
GI50 (786-0 renal): > 100 µM; TGI (786-0 renal): > 100 µM; GI50 (A498 renal): > 100 µM; TGI (A498 renal): > 100 µM; GI50 (A549 NSCLC): > 100 µM; TGI (A549 NSCLC): > 100 µM; GI50 (ACHN renal): > 100 µM; TGI (ACHN renal): > 100 µM; GI50 (CAKI-1 renal): > 100 µM; TGI (CAKI-1 renal): > 100 µM; GI50 (CCRF-CEM leukemia): > 100 µM; TGI (CCRF-CEM leukemia): > 100 µM; GI50 (COLO 205 colon): > 100 µM; TGI (COLO 205 colon): > 100 µM; GI50 (DLD-1 colon): > 100 µM; TGI (DLD-1 colon): > 100 µM; GI50 (DMS 114 small cell lung): > 100 µM; TGI (DMS 114 small cell lung): > 100 µM; GI50 (DMS 273 small cell lung): > 100 µM; TGI (DMS 273 small cell lung): > 100 µM; GI50 (HCT-116 colon): > 100 µM; TGI (HCT-116 colon): > 100 µM; GI50 (HL-60(TB) leukemia): > 100 µM; TGI (HL-60(TB) leukemia): > 100 µM; GI50 (HOP-18 NSCLC): 52.4 µM; TGI (HOP-18 NSCLC): > 100 µM; GI50 (HOP-92 NSCLC): > 100 µM; TGI (HOP-92 NSCLC): > 100 µM; GI50 (HT29 colon): > 100 µM; TGI (HT29 colon): > 100 µM; GI50 (IGROV1 ovarian): > 100 µM; TGI (IGROV1 ovarian): > 100 µM; GI50 (K-562 leukemia): > 100 µM; TGI (K-562 leukemia): > 100 µM; GI50 (KM12 colon): > 100 µM; TGI (KM12 colon): > 100 µM; GI50 (KM20L2 colon): > 100 µM; TGI (KM20L2 colon): > 100 µM; GI50 (LOX IMVI melanoma): > 100 µM; TGI (LOX IMVI melanoma): > 100 µM; GI50 (LXFL 529 NSCLC): > 100 µM; TGI (LXFL 529 NSCLC): > 100 µM; GI50 (M14 melanoma): > 100 µM; TGI (M14 melanoma): > 100 µM; GI50 (MALME-3M melanoma): > 100 µM; TGI (MALME-3M melanoma): > 100 µM; GI50 (MOLT-4 leukemia): > 100 µM; TGI (MOLT-4 leukemia): > 100 µM; GI50 (NCI-H226 lung): > 100 µM; TGI (NCI-H226 lung): > 100 µM; GI50 (NCI-H23 lung): > 100 µM; TGI (NCI-H23 lung): > 100 µM; GI50 (NCI-H460 lung): > 100 µM; TGI (NCI-H460 lung): > 100 µM; GI50 (NCI-H522 lung): > 100 µM; TGI (NCI-H522 lung): > 100 µM; GI50 (OVCAR-3 ovarian): > 100 µM; TGI (OVCAR-3 ovarian): > 100 µM; GI50 (OVCAR-4 ovarian): > 100 µM; TGI (OVCAR-4 ovarian): > 100 µM; GI50 (OVCAR-5 ovarian): > 100 µM; TGI (OVCAR-5 ovarian): > 100 µM; GI50 (OVCAR-8 ovarian): > 100 µM; TGI (OVCAR-8 ovarian): > 100 µM; GI50 (RPMI-8226 leukemia): > 100 µM; TGI (RPMI-8226 leukemia): > 100 µM; GI50 (RXF 393 renal): > 100 µM; TGI (RXF 393 renal): > 100 µM; GI50 (SF-268 CNS): > 100 µM; TGI (SF-268 CNS): > 100 µM; GI50 (SF-295 CNS): > 100 µM; TGI (SF-295 CNS): > 100 µM; GI50 (SF-539 CNS): > 100 µM; TGI (SF-539 CNS): > 100 µM; GI50 (SK-MEL-2 melanoma): > 100 µM; TGI (SK-MEL-2 melanoma): > 100 µM; GI50 (SK-MEL-28 melanoma): > 100 µM; TGI (SK-MEL-28 melanoma): > 100 µM; GI50 (SK-MEL-5 melanoma): > 100 µM; TGI (SK-MEL-5 melanoma): > 100 µM; GI50 (SK-OV-3 ovarian): > 100 µM; TGI (SK-OV-3 ovarian): > 100 µM; GI50 (SN12C renal): > 100 µM; TGI (SN12C renal): > 100 µM; GI50 (SNB-19 CNS): > 100 µM; TGI (SNB-19 CNS): > 100 µM; GI50 (SNB-75 CNS): > 100 µM; TGI (SNB-75 CNS): > 100 µM; GI50 (SR leukemia): > 100 µM; TGI (SR leukemia): > 100 µM; GI50 (SW-620 colon): > 100 µM; TGI (SW-620 colon): > 100 µM; GI50 (TK-10 renal): > 100 µM; TGI (TK-10 renal): > 100 µM; GI50 (U251 CNS): > 100 µM; TGI (U251 CNS): > 100 µM; GI50 (UACC-257 melanoma): > 100 µM; TGI (UACC-257 melanoma): > 100 µM; GI50 (UACC-62 melanoma): > 100 µM; TGI (UACC-62 melanoma): > 100 µM; GI50 (UO-31 renal): > 100 µM; TGI (UO-31 renal): > 100 µM; GI50 (XF 498 CNS): > 100 µM; TGI (XF 498 CNS): > 100 µM
